Columns and labels:
[1] = NOVARTIS: Cytotoxicity against human hepatocellular carcinoma cell line (Huh7); format: toxicity, cell-based, Huh-7; conditions: Huh7 cells (hepatocellular carcinoma cell line)
Plasmodium falciparum [2] = assay: NOVARTIS: Inhibition of Plasmodium falciparum W2 (drug-resistant) proliferation in erythrocyte-based infection assay; format: functional, organism-based; conditions: Plasmodium falciparum, W2; read-out: EC50
Plasmodium falciparum [3] = assay: NOVARTIS: Inhibition of Plasmodium falciparum 3D7 (drug-susceptible) proliferation in erythrocyte-based infection assay; format: functional, organism-based; conditions: Plasmodium falciparum, 3D7

| Compound | CC50 [1] | EC50 (Plasmodium falciparum [2]) | EC50 (Plasmodium falciparum [3]) |
| --- | --- | --- | --- |
| CCOC(=O)c1ccc2nc3c(nc2c1)C(=O)c1ccccc1C3=O | 512 nM | 23.6 nM | 26.7 nM |
| CCCNC(=O)Cn1nc(C)n2c(cc3sccc32)c1=O | > 10000 nM | > 971 nM | > 1250 nM |
| Cc1cc(C)nc(SCc2cc(=O)c(OC(=O)c3ccccc3Br)co2)n1 | > 100000 nM | > 11200 nM | > 11200 nM |
| O=C(C1CCC1)N1CCOc2c(cc(-c3csc4ccccc34)cc2OCCc2ccccn2)C1 | > 99600 nM | 515 nM | 754 nM |
| O=C(c1ccccc1)N1CCN(CC(O)COCc2ccccc2)CC1 (configuration not stated) | > 10000 nM | 618 nM | > 1250 nM |
| CC(C)c1cccc(C(C)C)c1NC(=O)N(Cc1ccccc1)C(C)c1nc2ccccc2c(=O)n1-c1ccc(Br)cc1 (configuration not stated) | > 10000 nM | 28 nM | 1320 nM |
| CN1CCN(c2nc(Nc3ccc(O)cc3)nc3ccccc23)CC1 | 41800 nM | 443 nM | 626 nM |
| CCC(=O)NC(c1ccccc1Cl)c1cc(Cl)c2cccnc2c1O (configuration not stated) | 35400 nM | 73.6 nM | 232 nM |
| CN(CCCNc1ccnc2cc(Cl)ccc12)C(=O)/C=C/c1ccccc1 | > 10000 nM | 286 nM | 371 nM |
| CCOC(=O)c1cccc(OC(=O)c2ccccc2)c1 | > 100000 nM | 2120 nM | > 7670 nM |
| CC(=O)NC1=NN(C(C)=O)C(c2ccc(Br)cc2)S1 (configuration not stated) | > 100000 nM | 976 nM | > 7540 nM |
| CCC(=O)N(C1=C(NC)C(=O)c2ccccc2C1=O)C(C)C | 563 nM | 36.5 nM | 8.99 nM |
| CO[C@H]1[C@@H](C)[C@@H]([C@H](C)C2O[C@@]3(CC[C@@](C)([C@H]4CC[C@@](C)([C@@H]5O[C@@H]([C@H]6O[C@](C)(O)[C@H](C)C[C@@H]6C)C[C@@H]5C)O4)O3)C[C@H](O)[C@@H]2C)O[C@@](O)([C@H](C)C(=O)O)[C@H]1C (some centres not stated) | > 10000 nM | 938 nM | 1140 nM |
| O=C(NCC1CCCO1)c1ccc([N+](=O)[O-])cc1Cl (configuration not stated) | > 10000 nM | > 877 nM | > 1120 nM |
| CCN1C=C(c2ccc(C)cc2)S/C1=C\c1sc2ccccc2[n+]1C | 18800 nM | 938 nM | 362 nM |
| O=C1C(O)=CC(=Nc2ccc(Cc3ccncc3)cc2)c2ccccc21 | > 10000 nM | 739 nM | 496 nM |
| COc1ccc(NC(=O)C2=C(C)Nc3c(C(=O)Nc4ccc(C)cc4)cnn3C2c2cccc(Cl)c2)cc1 (configuration not stated) | > 100000 nM | 924 nM | 2510 nM |

| Compound | CC50 [1] | EC50 (Plasmodium falciparum [2]) | EC50 (Plasmodium falciparum [3]) |
| --- | --- | --- | --- |
| COc1ccc(-c2cnnc(NN=Cc3ccc([N+](=O)[O-])o3)n2)cc1 | > 10000 nM | > 464 nM | > 1250 nM |
| COC(=O)C(Nc1ccc(Cl)c(Cl)c1)(c1cc(C)c(O)c(C)c1)C(F)(F)F (configuration not stated) | > 10000 nM | > 789 nM | > 1390 nM |
| O=C(Nc1ccon1)c1cc(-c2cccnc2)nc2ccc(Cl)cc12 | > 100000 nM | 606 nM | 1500 nM |
| C=CCSc1nc(Sc2ccc(Cl)cc2)c2sc3ccccc3c2n1 | > 10000 nM | > 642 nM | > 1250 nM |
| CCOC(=O)CN(C)Cc1ccc2c(NC(=O)c3ccc(C)s3)c(C(=O)OC)sc2n1 | > 100000 nM | 354 nM | 766 nM |
| CC(C)c1ccc(C2N(c3ccccc3)C3(C(=O)c4ccccc4C3=O)C(c3ccc(C(C)C)cc3)C23C(=O)c2ccccc2C3=O)cc1 (configuration not stated) | > 10000 nM | 792 nM | 802 nM |
| CC(C)C(=O)NCCCCNc1ccnc2cc(Cl)ccc12 | > 10000 nM | < 18.5 nM | 1600 nM |
| Cc1ccc(NC(=O)ON=C2CCCC2)cc1 | 45700 nM | 362 nM | 408 nM |
| CC(C)NC(=O)c1ccc2c(c1)N=C(c1ccccc1)N(C1CC1)C2 | > 10000 nM | 117 nM | > 1680 nM |
| O=C(Nc1ccc(-c2cn3ccsc3n2)cc1)c1ccc(S(=O)(=O)N2CCCCCC2)cc1 | 17600 nM | 1230 nM | 634 nM |
| CCOC(=O)c1ccc(N2CCN(c3cc(C)ccc3C)CC2)c(NC(=O)Nc2ccc(Cl)cc2)c1 | > 100000 nM | 691 nM | > 3540 nM |
| COc1ccc(S(=O)(=O)N=C2C=C(Nc3ccccc3)C(=O)c3ccccc32)cc1 | 12000 nM | 122 nM | 93.3 nM |
| CCOC(=O)c1c(CNc2ccncc2)n(C)c2cc(Br)c(OC(C)=O)cc12 | > 100000 nM | 310 nM | 257 nM |
| C=CCC(=O)NC1CCN(CC(O)CN(Cc2ccccc2)S(=O)(=O)c2ccccc2)C1 (configuration not stated) | > 100000 nM | 1330 nM | 257 nM |
| Fc1ccc(CNc2ccnc3cc(Cl)ccc23)cc1 | > 10000 nM | > 881 nM | 808 nM |
| CCCCC(CC)C(=O)N(C)CCCNc1ccnc2cc(Cl)ccc12 (configuration not stated) | > 9260 nM | 233 nM | 514 nM |
| CCN1c2ccc([N+](=O)[O-])cc2N(CC)C1(C)c1ccccc1 (configuration not stated) | 67600 nM | 39.7 nM | 204 nM |

From ChEMBL document CHEMBL1156829 (Proc Natl Acad Sci U S A, 2008)
